{"source": "paper PMC6071225", "about": "(Viruses, 2018)", "key": {"[1]": {"test_system": "NA with H275Y mutation, strain A/WSN/1933 (H1N1)", "settings": "cited from earlier work"}, "H275Y NA2009 [2]": {"test_system": "H275Y NA2009", "assay_type": "binding, A/California/07/2009 (H1N1) influenza virus"}, "S247N NA2009 [3]": {"test_system": "S247N NA2009", "assay_type": "biochemical, A/California/07/2009 (H1N1) influenza virus"}, "H275Y NA2009 [4]": {"target": "H275Y NA2009", "assay_type": "biochemical, A/California/07/2009 (H1N1) influenza virus"}, "I223V NA2009 [5]": {"test_system": "I223V NA2009", "assay_type": "binding, A/California/07/2009 (H1N1) influenza virus"}, "[6]": {"test_system": "H275Y/I223V 2009 pandemic H1N1 virus", "settings": "cited from earlier work"}, "[7]": {"test_system": "H275Y/S247N 2009 pandemic H1N1 virus", "settings": "cited from earlier work"}, "H275Y/S247N NA2009": {"test_system": "H275Y/S247N NA2009", "assay_type": "biochemical, A/California/07/2009 (H1N1) influenza virus"}, "I223V NA2009 [8]": {"target": "I223V NA2009", "assay_type": "biochemical, A/California/07/2009 (H1N1) influenza virus"}, "H275Y/I223V NA2009": {"test_system": "H275Y/I223V NA2009", "assay_type": "biochemical, A/California/07/2009 (H1N1) influenza virus"}, "S247N NA2009 [9]": {"test_system": "S247N NA2009", "assay_type": "binding, A/California/07/2009 (H1N1) influenza virus"}}, "data": [{"molecule": "CCC(CC)O[C@@H]1C=C(C(=O)O)C[C@H](N)[C@H]1NC(C)=O", "note": "[oseltamivir carboxylate]", "values": [{"measurement": "reduction in susceptibility conferred by His to Tyr mutation at position 275", "setting": "[1]", "value": 750, "unit": "fold"}, {"measurement": "enthalpy change less favorable than the wt value", "setting": "H275Y NA2009 [2]", "value": 8.7, "unit": "kcal/mol"}, {"measurement": "more favorable entropic contribution (referenced to the wt value)", "setting": "H275Y NA2009 [2]", "value": 6, "unit": "kcal/mol"}, {"measurement": "Kd", "setting": "H275Y NA2009 [2]; pH 6.15", "value": 13.2, "unit": "µM"}, {"measurement": "ΔG", "setting": "H275Y NA2009 [2]; pH 6.15", "value": "-6.7 ± 0.03", "unit": "kcal/mol"}, {"measurement": "ΔH", "setting": "H275Y NA2009 [2]; pH 6.15", "value": "-2.1 ± 0.04", "unit": "kcal/mol"}, {"measurement": "−T·ΔS", "setting": "H275Y NA2009 [2]; pH 6.15", "value": "-4.6 ± 0.1", "unit": "kcal/mol"}, {"measurement": "Fold Ki", "setting": "S247N NA2009 [3]", "value": 19, "unit": "fold"}, {"measurement": "Ki", "setting": "S247N NA2009 [3]", "value": "0.45 ± 0.04", "unit": "µM"}, {"measurement": "Ki", "setting": "H275Y NA2009 [4]", "value": 27, "unit": "µM"}, {"measurement": "less favorable enthalpy change compared to wt", "setting": "I223V NA2009 [5]", "value": 1.4, "unit": "kcal/mol"}, {"measurement": "more favorable entropic contribution compared to wt", "setting": "I223V NA2009 [5]", "value": 0.6, "unit": "kcal/mol"}, {"measurement": "Kd", "setting": "I223V NA2009 [5]; pH 6.15", "value": "0.52 ± 0.03", "unit": "µM"}, {"measurement": "ΔG", "setting": "I223V NA2009 [5]; pH 6.15", "value": "-8.6 ± 0.1", "unit": "kcal/mol"}, {"measurement": "ΔH", "setting": "I223V NA2009 [5]; pH 6.15", "value": "-9.4 ± 0.1", "unit": "kcal/mol"}, {"measurement": "−T·ΔS", "setting": "I223V NA2009 [5]; pH 6.15", "value": "0.9 ± 0.2", "unit": "kcal/mol"}, {"measurement": "enhanced oseltamivir-resistant phenotype compared to the recombinant wt virus", "setting": "[6]", "value": 1733, "unit": "fold"}, {"measurement": "enhanced oseltamivir-resistant phenotype compared to the recombinant wt virus", "setting": "[7]", "value": 7000, "unit": "fold"}, {"measurement": "Fold Ki", "setting": "H275Y/S247N NA2009", "value": 9000, "unit": "fold"}, {"measurement": "Ki", "setting": "H275Y/S247N NA2009", "value": 220, "unit": "µM"}, {"measurement": "increase in Ki compared to the H275Y single mutant", "setting": "H275Y/S247N NA2009", "value": 8, "unit": "fold"}, {"measurement": "increase in Ki compared to the S247N single mutant", "setting": "H275Y/S247N NA2009", "value": 500, "unit": "fold"}, {"measurement": "Ki", "setting": "I223V NA2009 [8]", "value": "0.7 ± 0.1", "unit": "µM"}, {"measurement": "Fold Ki", "setting": "H275Y/I223V NA2009", "value": 3900, "unit": "fold"}, {"measurement": "Ki", "setting": "H275Y/I223V NA2009", "value": 94, "unit": "µM"}, {"measurement": "increase in Ki compared to H275Y NA2009", "setting": "H275Y/I223V NA2009", "value": "more than three-fold"}, {"measurement": "entropic contribution of binding compared to wt", "setting": "S247N NA2009 [9]", "value": "almost unaffected"}, {"measurement": "less favorable enthalpy change compared to wt", "setting": "S247N NA2009 [9]", "value": 0.4, "unit": "kcal/mol"}, {"measurement": "Kd", "setting": "S247N NA2009 [9]; pH 6.15", "value": "0.41 ± 0.02", "unit": "µM"}, {"measurement": "ΔG", "setting": "S247N NA2009 [9]; pH 6.15", "value": "-8.7 ± 0.03", "unit": "kcal/mol"}, {"measurement": "ΔH", "setting": "S247N NA2009 [9]; pH 6.15", "value": "-10.4 ± 0.1", "unit": "kcal/mol"}, {"measurement": "−T·ΔS", "setting": "S247N NA2009 [9]; pH 6.15", "value": "1.7 ± 0.1", "unit": "kcal/mol"}]}, {"molecule": "CCC(CC)[C@H](NC(C)=O)[C@@H]1[C@H](O)[C@@H](C(=O)O)C[C@H]1N=C(N)N", "note": "[peramivir]", "values": [{"measurement": "reduction in susceptibility conferred by His to Tyr mutation at position 275", "setting": "[1]", "value": 260, "unit": "fold"}]}]}
